Results on 28 molecules are retold here after patent US10457703B2, “Bile acid derivatives as FXR/TGR5 agonists and methods of use thereof” (ENANTA PHARMACEUTICALS, INC., priority 2015, dated 2019).

This test addresses human FXR (NR1H4) (Homo sapiens (Human), UniProt Q96RI1). As to the kind of experiment: Human FXR (NR1H4) Assay (Gal4 promoter driven luciferase reporter, Indigo Bioscience kit).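 As to Efficacy (%): 100% equals the efficacy of CDCA; efficacy normalized to CDCA set as 100%.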 In kind it is cell-based. Conditions: for EC50: Human FXR (NR1H4) Assay, potency ranges; for Emax: read-out: Efficacy (%). The source says:
ASSAYS Human FXR (NR1H4) Assay
Determination of a ligand mediated Gal4 promoter driven transactivation to quantify ligand binding mediated activation of FXR. FXR Reporter Assay kit purchased from Indigo Bioscience (Catalogue number: IB00601) to determine the potency and efficacy of compound developed by Enanta that can induce FXR activation. The principle application of this reporter assay system is to quantify functional activity of human FXR. The assay utilizes non-human mammalian cells, CHO (Chinese hamster ovary) cells engineered to express human NR1H4 protein (referred to as FXR). Reporter cells also incorporate the cDNA encoding beetle luciferase which catalyzes the substrates and yields photon emission. Luminescence intensity of the reaction is quantified using a plate-reading luminometer, Envision. Reporter Cells include the luciferase reporter gene functionally linked to an FXR responsive promoter. Thus, quantifying changes in luciferase expression in the treated reporter cells provides a sensitive surrogate measure of the changes in FXR activity. […] The assay is according to the manufacturer's instructions. In brief, the assay was performed in white, 96 well plates using final volume of 100 uL containing cells with different doses of compounds. Retrieve Reporter Cells from −80° C. storage. Perform a rapid thaw of the frozen cells by transferring a 10 ml volume of 37° C. cell recovery medium into the tube of frozen cells. Recap the tube of Reporter Cells and immediately place it in a 37° C. water bath for 5-10 minutes. Retrieve the tube of Reporter Cell Suspension from the water bath. Sanitize the outside surface of the tube with a 70% alcohol swab, and then transfer it into the cell culture hood. Dispense 90 μl of cell suspension into each well of the 96-well Assay Plate. Transfer the plate into 37° C. incubator, allowing the cells adherent to the bottom of the well. Dilute compounds in Dilution Plate (DP), and administrate to cells at Assay Plate (AP). DMSO content of the samples was kept at 0.2%. Cells were incubated for additional 22 hours before luciferase activities were measured. Thirty minutes before intending to quantify FXR activity, remove Detection Substrate and Detection Buffer from the refrigerator and place them in a low-light area so that they may equilibrate to room temperature. Remove the plate's lid and discard all media contents by ejecting it into an appropriate waste container. Gently tap the inverted plate onto a clean absorbent paper towel to remove residual droplets. Cells will remain tightly adhered to well bottoms. Add 100 μl of luciferase detection reagent to each well of the assay plate. Allow the assay plate to rest at room temperature for at least 5 minutes following the addition of LDR. Set the instrument (Envision) to perform a single 5 second “plate shake” prior to reading the first assay well. Read time may be 0.5 second (500 mSec) per well.
(A reporter such as luciferase makes a cellular process visible.)

Structures are written as SMILES. Bounds are passed on as bounds.

Sequence of human FXR (NR1H4) (Q96RI1 whole entry, the tested form may be a part): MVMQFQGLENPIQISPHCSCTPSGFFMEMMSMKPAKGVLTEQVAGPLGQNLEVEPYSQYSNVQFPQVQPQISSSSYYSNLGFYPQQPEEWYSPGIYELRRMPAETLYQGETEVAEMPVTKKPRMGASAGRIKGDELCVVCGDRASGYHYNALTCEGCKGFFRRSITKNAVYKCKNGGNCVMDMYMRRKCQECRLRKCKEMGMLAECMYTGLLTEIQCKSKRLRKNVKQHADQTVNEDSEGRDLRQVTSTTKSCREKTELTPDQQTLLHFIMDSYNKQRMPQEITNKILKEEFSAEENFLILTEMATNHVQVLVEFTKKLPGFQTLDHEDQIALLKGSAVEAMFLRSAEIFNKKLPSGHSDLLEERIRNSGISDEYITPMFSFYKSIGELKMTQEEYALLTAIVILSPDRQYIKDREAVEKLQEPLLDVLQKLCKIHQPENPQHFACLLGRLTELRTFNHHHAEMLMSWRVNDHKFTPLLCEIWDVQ

By EC50 is commonly meant the concentration needed to bring the measured effect to its halfway point. The low end stands for an effect from little substance, the high end for a need for much substance. As for `CC[C@H]1[C@@H](O)[C@@H]2[C@H](CC[C@]3(C)[C@@H]([C@H](C)COC(=O)NS(=O)(=O)c4ccc(O)cc4)CC[C@@H]23)[C@@]2(C)CC[C@@H](O)C[C@@H]12` [Example 39], the EC50 was 100 to 1000 nM and the Emax worked out at 182%.
In the case of `CC[C@H]1[C@@H](O)[C@@H]2[C@H](CC[C@]3(C)[C@@H]([C@H](C)COC(=O)NS(=O)(=O)c4cccc(O)c4)CC[C@@H]23)[C@@]2(C)CC[C@@H](O)C[C@@H]12` [Example 38], the EC50 lay in the range of 100 to 1000 nM and the Emax came to 203%.
Consider `CC[C@H]1[C@@H](O)[C@@H]2[C@H](CC[C@]3(C)[C@@H]([C@H](C)CCOC(=O)NC4CCS(=O)(=O)CC4)CC[C@@H]23)[C@@]2(C)CC[C@@H](O)C[C@@H]12` [Example 167], for which the EC50 was in the range of 100 to 1000 nM and the Emax amounted to 321%.
Turning to `CC[C@H]1[C@@H](O)[C@@H]2[C@H](CC[C@]3(C)[C@@H]([C@H](C)COC(=O)NS(=O)(=O)c4ccc(OC(F)(F)F)cc4)CC[C@@H]23)[C@@]2(C)CC[C@@H](O)C[C@@H]12` [Example 6], the EC50 was in the range of 100 to 1000 nM and the Emax was found to be 298%.
`CC[C@H]1[C@@H](O)[C@@H]2[C@H](CC[C@]3(C)[C@@H]([C@H](C)CCCOC(=O)NS(=O)(=O)c4ccc5ccccc5c4)CC[C@@H]23)[C@@]2(C)CC[C@@H](O)C[C@@H]12` [Example 115]: the EC50 is 100 to 1000 nM and the Emax turned out to be 376%.
For `CC[C@H]1[C@@H](O)[C@@H]2[C@H](CC[C@]3(C)[C@@H]([C@H](C)COC(=O)NS(=O)(=O)c4ccc(N5CCC5)cc4)CC[C@@H]23)[C@@]2(C)CC[C@@H](O)C[C@@H]12` [Example 17], the EC50 was less than 100 nM and the Emax came to 211%.
`CC[C@H]1[C@@H](O)[C@@H]2[C@H](CC[C@]3(C)[C@@H]([C@H](C)CCOC(=O)N4CC[C@@H](O)C4)CC[C@@H]23)[C@@]2(C)CC[C@@H](O)C[C@@H]12` [Example 215]: the EC50 was less than 100 nM and the Emax was 143%.
On the same counts, the results for `CC[C@H]1[C@@H](O)[C@@H]2[C@H](CC[C@]3(C)[C@@H]([C@H](C)CCOC(=O)NS(=O)(=O)c4ccccc4OC(F)(F)F)CC[C@@H]23)[C@@]2(C)CC[C@@H](O)C[C@@H]12` [Example 77] are 100 to 1000 nM and 383%.
Regarding `CC[C@H]1[C@@H](O)[C@@H]2[C@H](CC[C@]3(C)[C@@H]([C@H](C)CCOC(=O)NS(=O)(=O)CCOC)CC[C@@H]23)[C@@]2(C)CC[C@@H](O)C[C@@H]12` [Example 83], the EC50 is 100 to 1000 nM and the Emax was 275%.
As to `CC[C@H]1[C@@H](O)[C@@H]2[C@H](CC[C@]3(C)[C@@H]([C@H](C)CCOC(=O)NC4CCCCCC4)CC[C@@H]23)[C@@]2(C)CC[C@@H](O)C[C@@H]12` [Example 138], the EC50 was 100 to 1000 nM and the Emax was determined as 297%.
On the same counts, the results for `CC[C@H]1[C@@H](O)[C@@H]2[C@H](CC[C@]3(C)[C@@H]([C@H](C)COC(=O)N4CCC4)CC[C@@H]23)[C@@]2(C)CC[C@@H](O)C[C@@H]12` [Example 200] are 1000 to 10000 nM and 7%.
`CC[C@H]1[C@@H](O)[C@@H]2[C@H](CC[C@]3(C)[C@@H]([C@H](C)CCOC(=O)N4CC[C@H](CO)C4)CC[C@@H]23)[C@@]2(C)CC[C@@H](O)C[C@@H]12` [Example 211]: the EC50 is less than 100 nM and the Emax turned out to be 198%.
Regarding `CC[C@H]1[C@@H](O)[C@@H]2[C@H](CC[C@]3(C)[C@@H]([C@H](C)CCCOC(=O)NS(=O)(=O)N4CCCC4)CC[C@@H]23)[C@@]2(C)CC[C@@H](O)C[C@@H]12` [Example 119], the EC50 was 1000 to 10000 nM and the Emax is 370%.
For `CC[C@H]1[C@@H](O)[C@@H]2[C@H](CC[C@]3(C)[C@@H]([C@H](C)COC(=O)NS(=O)(=O)c4ccc(-c5ccc(C(C)(C)C)cc5)cc4)CC[C@@H]23)[C@@]2(C)CC[C@@H](O)C[C@@H]12` [Example 34] the same measures were 100 to 1000 nM and 186%.
For `CC[C@H]1[C@@H](O)[C@@H]2[C@H](CC[C@]3(C)[C@@H]([C@H](C)CCOC(=O)NC(C(C)C)C(C)C)CC[C@@H]23)[C@@]2(C)CC[C@@H](O)C[C@@H]12` [Example 176] the same measures were 1000 to 10000 nM and 368%.
With `CC[C@H]1[C@@H](O)[C@@H]2[C@H](CC[C@]3(C)[C@@H]([C@H](C)CCOC(=O)Nc4ccc(F)cc4Cl)CC[C@@H]23)[C@@]2(C)CC[C@@H](O)C[C@@H]12` [Example 193], the EC50 lay in the range of 1000 to 10000 nM and the Emax worked out at 179%.
Take `CC[C@H]1[C@@H](O)[C@@H]2[C@H](CC[C@]3(C)[C@@H]([C@H](C)CCOC(=O)NCC4CCCCC4)CC[C@@H]23)[C@@]2(C)CC[C@@H](O)C[C@@H]12` [Example 188]: the EC50 is 100 to 1000 nM and the Emax is 459%.
On to `CC[C@H]1[C@@H](O)[C@@H]2[C@H](CC[C@]3(C)[C@@H]([C@H](C)CCOC(=O)NS(=O)(=O)c4cccc(C(F)(F)F)c4)CC[C@@H]23)[C@@]2(C)CC[C@@H](O)C[C@@H]12` [Example 78], for which the EC50 fell in the range of 100 to 1000 nM and the Emax is 365%.
On to `CC[C@H]1[C@@H](O)[C@@H]2[C@H](CC[C@]3(C)[C@@H]([C@H](C)CCOC(=O)NS(=O)(=O)c4ccc(C)cc4)CC[C@@H]23)[C@@]2(C)CC[C@@H](O)C[C@@H]12` [Example 104-b], for which the EC50 was less than 100 nM and the Emax turned out to be 363%.
For `CC[C@H]1[C@@H](O)[C@@H]2[C@H](CC[C@]3(C)[C@@H]([C@H](C)CCOC(=O)N4CCOCC4)CC[C@@H]23)[C@@]2(C)CC[C@@H](O)C[C@@H]12` [Example 160] the same measures were 100 to 1000 nM and 142%.
As to `CC[C@H]1[C@@H](O)[C@@H]2[C@H](CC[C@]3(C)[C@@H]([C@H](C)CCOC(=O)N4CCC[C@@H]4CO)CC[C@@H]23)[C@@]2(C)CC[C@@H](O)C[C@@H]12` [Example 209], the EC50 is less than 100 nM and the Emax was found to be 199%.
`CC[C@H]1[C@@H](O)[C@@H]2[C@H](CC[C@]3(C)[C@@H]([C@H](C)COC(=O)NS(=O)(=O)N4CCCC4)CC[C@@H]23)[C@@]2(C)CC[C@@H](O)C[C@@H]12` [Example 13]: the EC50 fell in the range of 100 to 1000 nM and the Emax came to 324%.
As to `CC[C@H]1[C@@H](O)[C@@H]2[C@H](CC[C@]3(C)[C@@H]([C@H](C)CCOC(=O)NS(=O)(=O)c4ccc5c(c4)CCCC5)CC[C@@H]23)[C@@]2(C)CC[C@@H](O)C[C@@H]12` [Example 89], the EC50 is less than 100 nM and the Emax was found to be 278%.
For `CC[C@H]1[C@@H](O)[C@@H]2[C@H](CC[C@]3(C)[C@@H]([C@H](C)CCOC(=O)NS(=O)(=O)c4nccs4)CC[C@@H]23)[C@@]2(C)CC[C@@H](O)C[C@@H]12` [Example 104-c] the same measures were 1000 to 10000 nM and 34%.
For `CC[C@H]1[C@@H](O)[C@@H]2[C@H](CC[C@]3(C)[C@@H]([C@H](C)CCOC(=O)NS(=O)(=O)c4cnccn4)CC[C@@H]23)[C@@]2(C)CC[C@@H](O)C[C@@H]12` [Example 99], the EC50 was 1000 to 10000 nM and the Emax is 51%.
For the molecule `CCC(CC)S(=O)(=O)NC(=O)OCC[C@@H](C)[C@H]1CC[C@H]2[C@@H]3[C@H](O)[C@H](CC)[C@@H]4C[C@H](O)CC[C@]4(C)[C@H]3CC[C@]12C` [Example 96], the 50% effective concentration (EC50) is less than 100 nM and the Emax amounted to 388%.
On the same counts, the results for `CC[C@H]1[C@@H](O)[C@@H]2[C@H](CC[C@]3(C)[C@@H]([C@H](C)CCOC(=O)NS(=O)(=O)c4ccc(C(C)(C)CO)cc4)CC[C@@H]23)[C@@]2(C)CC[C@@H](O)C[C@@H]12` [Example 70] are less than 100 nM and 333%.
On the same counts, the results for `CC[C@H]1[C@@H](O)[C@@H]2[C@H](CC[C@]3(C)[C@@H]([C@H](C)CCOC(=O)NC4CCCC4O)CC[C@@H]23)[C@@]2(C)CC[C@@H](O)C[C@@H]12` (some centres unmarked) [Example 195] are less than 100 nM and 288%.
